target: T1, Human autotaxin enzyme (Homo sapiens, UniProt Q13822); assay: Evaluation of autotaxin inhibitor, 18:0 Lyso PC / choline assay (Test Example 2); assay type: biochemical; conditions: human autotaxin enzyme, 18:0 Lyso PC substrate, choline assay, room temperature 2 hours; read-out: Inhibitor activity (IC50)
T1 construct: purchased R&D System
In short: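 Inhibition derived from concentration-dependent curves, scaled between no-compound (0%) and no-enzyme (100%) wells. Choline generated from 18:0 Lyso PC (200 μM stock) by human enzyme over 2 h at room temperature (Tris-HCl pH 7.5, NaCl, MgCl2, Triton X-100) read as resorufin fluorescence, 531/598 nm, after choline oxidase-peroxidase coupling.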

Row | IC50 [nM] | SMILES
1 | 100 to 1000 | CCNC(=O)N1CCC(NC(=O)Cn2cnc(-c3ccc(Cl)cc3NC(=O)C(C)(C)C)cc2=O)CC1 [Compound I-0487]
2 | 100 to 1000 | CC(C)(C)C(=O)Nc1cc(Cl)ccc1-c1cc(=O)n(Cc2cccc(C(=O)NCc3c[nH]nn3)c2)cn1 [Compound I-0488]
3 | 10 to 100 | CC(C)(C)C(=O)Nc1cc(Cl)ccc1-c1cc(=O)n(Cc2cccc(C(=O)N3CCC(O)CC3)c2)cn1 [Compound I-0489]
4 | 100 to 1000 | CCS(=O)(=O)N1CCN(C(=O)Cn2cnc(-c3ccc(Cl)cc3NC(=O)C(C)(C)C)cc2=O)CC1 [Compound I-0490]
5 | 100 to 1000 | CC(C)(C)C(=O)Nc1cc(Cl)ccc1-c1cc(=O)n(Cc2cccc(C(=O)Nc3cnccc3O)c2)cn1 [Compound I-0491]
6 | 10 to 100 | CC(C)(C)C(=O)Nc1cc(Cl)ccc1-c1cc(=O)n(Cc2cccc(C(=O)Nc3cccnc3O)c2)cn1 [Compound I-0492]
7 | ≥ 1000 | CC(C)(C)C(=O)Nc1cc(Cl)ccc1-c1cc(=O)n(Cc2cccc(C(=O)Nc3ccnc(O)c3)c2)cn1 [Compound I-0493]
8 | < 10 | COC(=O)Nc1cc(Cl)ccc1-c1cc(=O)n(CC(=O)N2CCC(CC(=O)OC(C)(C)C)CC2)c(C)n1 [Compound I-0494]
9 | 10 to 100 | CC(C)(C)C(=O)Nc1cc(Cl)ccc1-c1cc(=O)n(Cc2cccc(C(=O)N3CCC4(COC4)C3)c2)cn1 [Compound I-0495]
10 | 10 to 100 | Cc1nc(-c2ccc(Cl)cc2NC(=O)C2CC2)cc(=O)n1CC(=O)N1CCC(CC(=O)OC(C)(C)C)CC1 [Compound I-0496]
11 | 10 to 100 | CC(C)(C)C(=O)Nc1cc(Cl)ccc1-c1cc(=O)n(Cc2cccc(C(=O)N3CCC(C(N)=O)CC3)c2)cn1 [Compound I-0497]
12 | 100 to 1000 | CC(C)(C)C(=O)Nc1cc(Cl)ccc1-c1cc(=O)n(Cc2cccc(C(=O)NCC3CCC(=O)NC3)c2)cn1 (stereo not drawn) [Compound I-0498]
13 | 100 to 1000 | CC(=O)Nc1cc(Cl)ccc1-c1cc(=O)n(CC(=O)N2CCN(CCC(=O)c3ccc4[nH]c(=O)oc4c3)CC2)cn1 [Compound I-0499]
14 | 10 to 100 | CCNC(=O)N1CCC(NC(=O)c2cccc(Cn3cnc(-c4ccc(Cl)cc4NC(=O)C(C)(C)C)cc3=O)c2)CC1 [Compound I-0500]
15 | 10 to 100 | CCS(=O)(=O)N1CCN(C(=O)c2cccc(Cn3cnc(-c4ccc(Cl)cc4NC(=O)C(C)(C)C)cc3=O)c2)CC1 [Compound I-0501]
